Values quoted from earlier work in patent US5798310A, “Glyphosate compositions and their use” (Monsanto Europe S.A., priority 1995, dated 1998).

Settings: literature

Row | SMILES | effect on herbicidal activity of glyphosate
1 | N.N.O=S(=O)(O)O [ammonium sulphate] | further enhance the herbicidal activity
2 | N#CS [ammonium thiocyanate] | further enhance the herbicidal activity
